Data: US10358469B2, “Methods and pharmaceutical compositions for the treatment of cancer” (INSERM (INSTITUT NATIONAL DE LA SANTÉ ET DE LA RECHERCHE …, priority 2014, dated 2019)

What was measured:
D3H2LN cells = test: Matrigel invasion assay, D3H2LN cells; type: cell-based; conditions: 2 μM, toward 10% FBS, 24 h, FIG. 7B
Experimental: FIG. 7: Antp-AAC-11-LZ (363-399) peptide inhibits cell migration and invasion. (A) D3H2LN cells were added to the upper well of modified Boyden chamber (transwell) plates with a vehicle or with either 2 μM of the Antp-AAC-11-LZ (363-399) peptide or the Antp-only peptide and subjected to a transwell migration assay as described under Materials and methods. The cells were allowed to migrate toward 10% FBS for 12 […]h. Triplicate wells were used for each of three independent experiments. The results are expressed relative to the migration of the untreated cells (=100%). Column: Mean of three experiments. Bar: s.e. P-value was determined by Student's t-test (*P<0.01). (B) D3H2LN cells were seeded in a Matrigel-coated Boyden chamber with a vehicle or with either 2 μM of the Antp-AAC-11-LZ (363-399) peptide or the Antp-only peptide and subjected to a transwell migration assay as described under Materials and methods. The cells were allowed to migrate toward 10% FBS for 24 […]h. Triplicate wells were used for each of three independent experiments. The results are expressed relative to the migration of the untreated cells (=100%). Column: Mean of three experiments. Bar: s.e. P-value was determined by Student's t-test (*P<0.01) […]

A549 cells = test: Cell viability (MTT) of A549 cells under low serum / serum deprivation; type: cell-based
Experimental: (A) Karpas 1106, SU-DHL-5, SeAx and HUT-78 cells were plated at a densities of 6×10^3 in 96 well plates (100 μL total volume per well) and treated for 24 hours in a 37° C. incubator (5% CO2) with increasing concentrations of the Antp-AAC-11-LZ (363-399). 20 μL MTS reagent was then added to each well and plates were incubated for an additional 4 hours. Absorbance was measured at 490 nm using a 96-well plate reader. The extent to which the Antp-AAC-11-LZ (363-399) peptide inhibited cell proliferation was calculated as a percentage of the absorbance in each well containing the Antp-AAC-11-LZ (363-399) peptide relative to wells containing no peptide (negative control). Each bar represents the mean±s.d. from at least three independent experiments. (B) Indicated cells were plated at a densities of 4.5×10^3 in 96 well plates (100 μL total volume per well) and allowed to attach overnight in a 37° C. incubator (5% CO2). Media was removed from cells and replaced with media containing Antp-AAC-11-LZ (363-399) peptide at various concentrations (100 μL total volume per well) peptide and the plates were incubated for 24 hours. The MTT assay was then completed and data analysis was performed as described herein. […] A549 cells were plated at a densities of 4.5×10^3 in 96 well plates (100 μL total volume per well) and allowed to attach overnight in a 37° C. incubator (5% CO2). Media was removed from cells and replaced with media containing the indicated peptides at 10 μM (100 μL total volume per well) and the plates were incubated for 24 hours. The MTT assay was then completed and data analysis was performed as described herein.
(A) A549 cells were plated at a densities of 4.5×10^3 in 96 well plates (100 μL total volume per well) and allowed to attach overnight in a 37° C. incubator (5% CO2). Media was removed from cells and replaced with media containing the indicated peptides at various concentrations (100 μL total volume per well) peptide in the absence of serum and the plates were incubated for 24 hours. The MTT assay was then completed and data analysis was performed as described herein. (B) A549 or HaCat cells were plated at a densities of 4.5×10^3 in 96 well plates (100 μL total volume per well) and allowed to attach overnight in a 37° C. incubator (5% CO2). Media was removed from cells and replaced with media containing the indicated peptides at 10 μM (100 μL total volume per well) peptide in the absence of serum and the plates were incubated for 24 hours. The MTT assay was then completed and data analysis was performed as described herein.
A549 cells were plated at a densities of 4.5×10^3 in 96 well plates (100 μL total volume per well) and allowed to attach overnight in a 37° C. incubator (5% CO2). Cells were left untreated or pre-treated with 100 μM Z-VAD-FMK for 2 h. […] The MTT assay was then completed and data analysis was performed as described herein.
(A) A549 cells were plated at a densities of 4.5×10^3 in 96 well plates (100 μL total volume per well) and allowed to attach overnight in a 37° C. incubator (5% CO2). Media was removed from cells and replaced with media containing the indicated Antp-AAC-11-LZ peptides at various concentrations (100 μL total volume per well) peptide and the plates were incubated for 24 hours. The MTT assay was then completed and data analysis was performed as described herein. (B) A549 or HaCat cells were plated at a densities of 4.5×10^3 in 96 well plates (100 μL total volume per well) and allowed to attach overnight in a 37° C. incubator (5% CO2). Media was removed from cells and replaced with media containing the indicated peptides at 10 μM (100 μL total volume per well) peptide in the absence of serum and the plates were incubated for 24 hours. The MTT assay was then completed and data analysis was performed as described herein.

Ac-RQIKIWFKKQNRRMKWKKAKLNAEKLKDFKIRLQYFARGLQVYIRQLRLALQGKT-NH2 [Antp-AAC-11-LZ (363-399)]
cell invasion (D3H2LN cells): prevented invasion | cellular viability (A549 cells; 2 µM): 97 % of control | influence of cycloheximide on peptide induced-cytotoxicity (A549 cells; 10 μM cycloheximide, various peptide concentrations, data not shown): had no influence | induction of cell death of A549 cells (A549 cells; 10 μM, serum deprivation, 24 hours, FIG. 1C): induced cell death | effect of pan-caspase inhibitor Z-VAD-FMK on induced cytotoxicity / cell death (A549 cells; 100 μM Z-VAD-FMK, 2 h pre-treatment, 24 hours, cisplatin 50 μM, FIG. 3): did not rescue, but somehow increased
